Counter-ions that a name gives are not always drawn.
Experiments:
[1] = Hygroscopicity by dynamic vapor sorption (DVS); format: physicochemical
Procedure: Hygroscopicity was assessed using a dynamic vapor sorption technique in which an accurately weighed sample is subjected to progressively changing water vapor pressure while simultaneously recording the weight change. The experiment is conducted isothermally at 25° C.
FIG. 3 provides a moisture sorption isotherm of the tosylate salt of trans-N-ethyl-3-fluoro-3-[3-fluoro-4-(pyrrolidin-1-ylmethyl)phenyl]cyclobutanecarboxamide, with absorption as the (♦) curve and desorption as the (▪) curve, plotting percent change in weight as a function of relative humidity, using the kinetic flow through method (8.1 mg sample, 25° C.).
During the initial drying cycle (25° C., 1% RH), less than 0.1% weight loss was observed, which is consistent with an anhydrous non-hygroscopic form. An approximate 0.06% increase in weight was detected by DVS analysis when a sample was exposed to relative humidities from 5% to 90% at 25° C. The desorption phase mimicked the sorption phase when the relative humidity was decreased to 5% (see FIG. 3). Additionally, the powder x-ray diffraction pattern for the sample after hygroscopicity testing matched the pattern of the sample prior to that testing.

[2] = Aqueous solubility (RP-HPLC after temperature cycling); format: physicochemical; settings: for solubility at 25 h: thermodynamic from solid
Procedure: The following information was determined in regard of aqueous solubility. […] These values represent the solubility of the crystalline compound determined via RP-HPLC analysis after subjecting the drug media mixture to a temperature cycling program (40° C. for 8 hours, 15° C. for 5 hours, and 25° C. for 12 hours).

weight loss during initial drying cycle ([1]; 25° C., 1% RH): less than 0.1%
increase in weight by DVS analysis ([1]; relative humidities from 5% to 90% at 25° C.): ~0.06%
hygroscopicity (in words) ([1]; summary statement): only slightly hygroscopic
solubility at 25 h ([2]; 25 °C, fassif, 0.1M phosphate buffered saline with 0.5 weight percent sodium tauracholate/phosphatidyl choline salts, final pH 6.5, temperature cycling): > 11 mg/mL
solubility at 25 h ([2]; 25 °C, unbuffered water, final pH 3.8, temperature cycling): 23.6 mg/mL
solubility at 25 h ([2]; aqueous buffer, 0.1M phosphate buffered saline, final pH 6.5, crystalline compound, temperature cycling 40/15/25° C.): > 10 mg/mL
aqueous solubility (in words) ([2]; summary statement): high aqueous solubility
SMILES: CCNC(=O)[C@H]1C[C@@](F)(c2ccc(CN3CCCC3)c(F)c2)C1 [tosylate salt, (trans)-3-fluoro-3-[3-fluoro-4-(pyrrolidin-1-ylmethyl)phenyl]cyclobutanecarboxylic acid ethylamide tosylate salt]
